Where two headings read alike, the source gives them in different places.
How the values were obtained:
[1] = biological target: mutant BRAF kinase (Homo sapiens (Human), UniProt P15056, V600E); conditions: read-out: BRAF V600E Kd, class symbols
[2] = test system: panel of 290 distinct kinases (321 in the larger panel), excluding mutant variants
[3] = kinase selectivity score, 290 distinct kinases, class symbols
[4] = kinase selectivity score, value marked * (larger kinase panel), class symbols
[5] = asterisk: panel of 321 distinct kinases
[6] = no asterisk: panel of 290 distinct kinases

Sequence of mutant BRAF kinase (P15056 whole entry V600E): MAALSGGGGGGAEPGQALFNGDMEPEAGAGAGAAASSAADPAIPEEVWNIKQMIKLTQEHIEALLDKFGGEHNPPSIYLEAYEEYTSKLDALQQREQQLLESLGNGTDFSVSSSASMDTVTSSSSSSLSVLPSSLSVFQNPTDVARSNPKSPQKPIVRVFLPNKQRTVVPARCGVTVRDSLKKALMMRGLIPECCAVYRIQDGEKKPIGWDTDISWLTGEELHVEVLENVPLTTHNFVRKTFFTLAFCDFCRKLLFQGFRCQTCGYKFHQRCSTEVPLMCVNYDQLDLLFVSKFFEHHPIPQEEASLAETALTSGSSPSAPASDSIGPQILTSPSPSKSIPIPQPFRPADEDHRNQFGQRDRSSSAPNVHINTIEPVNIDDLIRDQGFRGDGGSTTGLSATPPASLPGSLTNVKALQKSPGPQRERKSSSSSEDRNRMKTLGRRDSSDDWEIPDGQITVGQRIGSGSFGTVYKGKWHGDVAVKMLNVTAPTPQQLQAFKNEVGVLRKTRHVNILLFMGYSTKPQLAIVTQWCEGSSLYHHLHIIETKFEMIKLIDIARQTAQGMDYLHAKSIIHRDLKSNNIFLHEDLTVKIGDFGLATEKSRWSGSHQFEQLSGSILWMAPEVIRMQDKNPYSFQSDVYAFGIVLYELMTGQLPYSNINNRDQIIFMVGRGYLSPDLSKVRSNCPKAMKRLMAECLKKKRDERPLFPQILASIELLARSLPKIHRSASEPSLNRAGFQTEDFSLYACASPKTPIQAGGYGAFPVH

| SMILES | Kd [1] [nM] | S35 [2, 3] | S35 [2, 6] | further results |
| --- | --- | --- | --- | --- |
| COc1cc2c(Oc3cccc(NC(=O)Nc4cc(C(C)(C)C)on4)c3)ncnc2cc1OCCN1CCC(CO)CC1 [Ex 37, 1-(5-tert-butyl-isoxazol-3-yl)-3-(3-{7-[2-(4-hydroxymethyl-piperidin-1-yl)-ethoxy]-6-methoxy-quinazolin-4-yloxy}-phenyl)-urea] | < 250 | C (0.20 < C ≦ 0.40) |  |  |
| COc1cc2ncnc(Oc3cccc(NC(=O)Nc4ccc(Cl)c(C(F)(F)F)c4)c3)c2cc1OC [Ex 176, 1-(4-chloro-3-(trifluoromethyl)phenyl)-3-(3-(6,7-dimethoxyquinazolin-4-yloxy)phenyl)urea] | < 250 | C (0.20 < C ≦ 0.40) |  |  |
| COc1cc2ncnc(Sc3cccc(NC(=O)Nc4cc(C(C)(C)C)on4)c3)c2cc1OCCCN1CCN(S(C)(=O)=O)CC1 [Ex 60, 1-(5-tert-butylisoxazol-3-yl)-3-(3-(7-methoxy-6-(3-(4-(methylsulfonyl)piperazin-1-yl)propoxy)quinazolin-4-ylthio)phenyl)urea] | < 250 | C (0.20 < C ≦ 0.40) |  |  |
| COc1cc2ncnc(Oc3cccc(NC(=O)Nc4cc(C(C)(C)C)on4)c3)c2cc1OCCN1CCN(CCO)CC1 [Ex 19, 1-(5-tert-butylisoxazol-3-yl)-3-(3-(6-(2-(4-(2-hydroxyethyl)piperazin-1-yl)ethoxy)-7-methoxyquinazolin-4-yloxy)phenyl)urea] | < 250 | D (D > 0.40) |  |  |
| COc1cc2ncnc(Sc3cccc(NC(=O)Nc4cc(C(C)(CF)CF)no4)c3)c2cc1OC [Ex 160, 1-[3-(1,3-difluoro-2-methylpropan-2-yl)isoxazol-5-yl]-3-[3-(6,7-dimethoxyquinazolin-4-ylthio]phenyl)urea] | < 250 |  |  | S35 [2, 4]: C* (0.20 < C ≦ 0.40) |
| COc1cc2ncnc(Sc3cccc(NC(=O)Nc4cc(C(C)(C)C)on4)c3)c2cc1OCCN1CCN(C)CC1 [Ex 67, 1-(5-tert-butylisoxazol-3-yl)-3-(3-(7-methoxy-6-(2-(4-methylpiperazin-1-yl)ethoxy)quinazolin-4-ylthio)phenyl)urea] | < 250 | C (0.20 < C ≦ 0.40) |  |  |
| COc1cc2ncnc(Oc3cccc(NC(=O)Nc4cc(C(C)(C)C)on4)c3)c2cc1OCCN1CCC(CO)CC1 [Ex 17, 1-(5-tert-butylisoxazol-3-yl)-3-(3-(6-(2-(4-(hydroxymethyl)piperidin-1-yl)ethoxy)-7-methoxyquinazolin-4-yloxy)phenyl)urea] | < 250 | C (0.20 < C ≦ 0.40) |  |  |
| COCCOc1cc2ncnc(Oc3cccc(NC(=O)Nc4cccc(C(C)(C)C)c4)c3)c2cc1OC [Ex 119, 1-(3-tert-butylphenyl)-3-(3-(6-methoxy-7-(2-methoxyethoxy)quinazolin-4-yloxy)phenyl)urea] | < 250 |  |  | S35 [2, 4]: C* (0.20 < C ≦ 0.40) |
| COc1cc2ncnc(Sc3cccc(NC(=O)Nc4cc(C(C)(C)C)on4)c3)c2cc1OCCN1CCN(CCO)CC1 [Ex 68, 1-(5-tert-butylisoxazol-3-yl)-3-(3-(6-(2-(4-(2-hydroxyethyl)piperazin-1-yl)ethoxy)-7-methoxyquinazolin-4-ylthio)phenyl)urea] | < 250 | C (0.20 < C ≦ 0.40) |  |  |
| COCCOc1cc2ncnc(Oc3cccc(NC(=O)Nc4cc(C5CCOCC5)no4)c3)c2cc1OC [Ex 216, 1-(3-(6-methoxy-7-(2-methoxyethoxy)quinazolin-4-yloxy)phenyl)-3-(3-(tetrahydro-2H-pyran-4-yl)isoxazol-5-yl)urea] |  |  |  | S35 [2, 5]: B* (0.10 < B ≦ 0.20) |
| COc1cc2ncnc(Oc3ccc(Cl)c(NC(=O)Nc4cc(C(F)(F)F)nn4-c4ccccc4)c3)c2cc1OC [Ex 300, 1-(2-chloro-5-(6,7-dimethoxyquinazolin-4-yloxy)phenyl)-3-(1-phenyl-3-(trifluoromethyl)-1H-pyrazol-5-yl)urea] |  |  | C (0.20 < C ≦ 0.40) |  |
| COCCOc1cc2ncnc(Oc3cccc(NC(=O)Nc4cc(C(F)(F)F)no4)c3)c2cc1OC [Ex 229, 1-(3-(6-methoxy-7-(2-methoxyethoxy)quinazolin-4-yloxy)phenyl)-3-(3-(trifluoromethyl)isoxazol-5-yl)urea] |  |  |  | S35 [2, 5]: C* (0.20 < C ≦ 0.40) |
| COc1cc2ncnc(Sc3cccc(NC(=O)Nc4cc(C(C)(C)F)no4)c3)c2cc1OCCCN1CCS(=O)(=O)CC1 [Ex 245, 1-(3-(2-fluoropropan-2-yl)isoxazol-5-yl)-3-(3-(7-methoxy-6-(4,4-dioxo-3-thiomorpholinopropoxy)quinazolin-4-ylthio)phenyl)urea] |  |  |  | S35 [2, 5]: C* (0.20 < C ≦ 0.40) |
| COc1cc2ncnc(Oc3ccc(Cl)c(NC(=O)Nc4cc(C(C)(C)C)nn4-c4ccc(C)cc4)c3)c2cc1OC [Ex 298, 1-(3-tert-butyl-1-p-tolyl-1H-pyrazol-5-yl)-3-(2-chloro-5-(6,7-dimethoxyquinazolin-4-yloxy)phenyl)urea] |  |  | D (D > 0.40) |  |
| COc1cc2ncnc(Oc3ccc(Cl)c(NC(=O)Nc4cc(C(C)(C)C)on4)c3)c2cc1OC [Ex 299, 1-(5-tert-butylisoxazol-3-yl)-3-(2-chloro-5-(6,7-dimethoxyquinazolin-4-yloxy)phenyl)urea] |  |  | C (0.20 < C ≦ 0.40) |  |
| COc1cc2ncnc(Oc3cccc(NC(=O)Nc4cc(C(C)(C)C#N)no4)c3)c2cc1OC [Ex 125, 1-(3-(2-cyanopropan-2-yl)isoxazol-5-yl)-3-(3-(6,7-dimethoxyquinazolin-4-yloxy)phenyl)urea] |  |  |  | S35 [2, 4]: C* (0.20 < C ≦ 0.40) |
| COc1cc2ncnc(Oc3cc(NC(=O)Nc4cc(C(C)(C)C)nn4-c4ccccc4)c(F)cc3F)c2cc1OC [Ex 273, 1-(3-tert-butyl-1-phenyl-1H-pyrazol-5-yl)-3-(5-(6,7-dimethoxyquinazolin-4-yloxy)-2,4-difluorophenyl)urea] |  |  | D (D > 0.40) |  |
| COc1cc2ncnc(Sc3cccc(NC(=O)Nc4ccc(OC)c(C(F)(F)F)c4)c3)c2cc1OCCCN1CCS(=O)(=O)CC1 [Ex 246, 1-(4-methoxy-3-(trifluoromethyl)phenyl)-3-(3-(7-methoxy-6-(3-(4,4-dioxothiomorpholino)propoxy)quinazolin-4-ylthio)phenyl)urea] |  |  |  | S35 [2, 5]: C* (0.20 < C ≦ 0.40) |
| COc1cc2ncnc(Sc3cccc(NC(=O)Nc4cc(C(C)(C)C)nn4-c4cccc(F)c4)c3)c2cc1OC [Ex 360, 1-(3-tert-butyl-1-(3-fluorophenyl)-1H-pyrazol-5-yl)-3-(3-(6,7-dimethoxyquinazolin-4-ylthio)phenyl)urea] |  |  | D (D > 0.40) |  |
| COc1ccc(-n2nc(C(C)(C)C)cc2NC(=O)Nc2cccc(Sc3ncnc4cc(OC)c(OC)cc34)c2)cc1 [Ex 362, 1-(3-tert-butyl-1-(4-methoxyphenyl)-1H-pyrazol-5-yl)-3-(3-(6,7-dimethoxyquinazolin-4-ylthio)phenyl)urea] |  |  | D (D > 0.40) |  |
| CCOc1cc2c(Oc3cccc(NC(=O)Nc4cc(C(C)(C)F)no4)c3)ncnc2cc1OC [Ex 392, 1-(3-(6-ethoxy-7-methoxyquinazolin-4-yloxy)phenyl)-3-(3-(2-fluoropropan-2-yl)isoxazol-5-yl)urea] |  |  | C (0.20 < C ≦ 0.40) |  |
| COCCOc1cc2ncnc(Oc3cccc(NC(=O)Nc4cc(C(C)(C)C)nn4-c4ccc(C)cc4)c3)c2cc1OC [Ex 276, 1-(3-tert-butyl-1-p-tolyl-1H-pyrazol-5-yl)-3-(3-(6-methoxy-7-(2-methoxyethoxy)quinazolin-4-yloxy)phenyl)urea] |  |  | D (D > 0.40) |  |

— US9730937B2, “RAF kinase modulator compounds and methods of use thereof” (AMBIT BIOSCIENCES CORPORATION, priority 2008, dated 2017)
